Species: Rattus norvegicus
Assay: Open TG-GATES - Regimen: Single
Type: toxicity, organism-based, Sprague-Dawley
Set-up: regimen Single, gender Male, age 6 weeks
Conditions: in vivo, po, 120 mg/kg, route gavage, dose level Middle; for KIDNEY_L / KIDNEY_R / KIDNEY_TOTAL: tissue Kidney; for LIVER: tissue Liver; for ALP / ALT / AST / BUN / CRE / Ca / Cl / DBIL / GLC / IP / LDH / Na / PL / RALB / TBIL / TC / TG / TP / gamma-GTP: tissue Plasma

With `CC(C)N(CCC(C(N)=O)(c1ccccc1)c1ccccn1)C(C)C` (centres undefined) [DISOPYRAMIDE] as the compound, how does the Bas (3 h, tissue Blood) read?
The Bas was 0%.

And the Eos (3 h, tissue Blood)?
The Eos was 0.8%.

What about the Fbg (3 h, tissue Blood) of the same compound?
The Fbg was 307.4 mg/dL.

And the Ht (3 h, tissue Blood)?
The Ht was 41.8%.

What about the Lym (3 h, tissue Blood) of the same compound?
Its Lym is 77.4%.

And the MCHC (3 h, tissue Blood)?
Its MCHC is 32.3%.

And the MCV (3 h, tissue Blood)?
Its MCV is 62.8 fL.

What about the Mono (3 h, tissue Blood) of the same compound?
The Mono was 2.2%.

What about the Neu (3 h, tissue Blood) of the same compound?
Its Neu is 19%.

And the PT (3 h, tissue Blood)?
Its PT is 15.5 s.

And the Plat (3 h, tissue Blood)?
The Plat was 121.9 x10_4/uL.

What about the RBC (3 h, tissue Blood) of the same compound?
Its RBC is 665.8 x10_4/ul.

And the Ret (3 h, tissue Blood)?
Its Ret is 7.4%.

What about the WBC (3 h, tissue Blood) of the same compound?
The WBC was 63.5 x10_2/uL.

And the KIDNEY_L (3 h)?
Its KIDNEY_L is 0.9 g.

What about the KIDNEY_R (3 h) of the same compound?
The KIDNEY_R was 1 g.

And the KIDNEY_TOTAL (3 h)?
Its KIDNEY_TOTAL is 1.9 g.

What about the LIVER (3 h) of the same compound?
Its LIVER is 9.5 g.

And the ALP (3 h)?
The ALP was 1368.8 IU/L.

And the ALT (3 h)?
Its ALT is 51.2 IU/L.

And the AST (3 h)?
The AST was 89.2 IU/L.

What about the BUN (3 h) of the same compound?
The BUN was 10.6 mg/dL.

What about the CRE (3 h) of the same compound?
Its CRE is 0.2 mg/dL.

And the Ca (3 h)?
The Ca was 10.4 mg/dL.

What about the Cl (3 h) of the same compound?
Its Cl is 106 meq/L.

What about the DBIL (3 h) of the same compound?
Its DBIL is 0.002 mg/dL.

What about the GLC (3 h) of the same compound?
Its GLC is 161 mg/dL.

And the IP (3 h)?
The IP was 8.5 mg/dL.

What about the LDH (3 h) of the same compound?
The LDH was 202.4 IU/L.

What about the Na (3 h) of the same compound?
The Na was 141.6 meq/L.

What about the PL (3 h) of the same compound?
Its PL is 124 mg/dL.

And the RALB (3 h)?
The RALB was 3.1 g/dL.

What about the TBIL (3 h) of the same compound?
The TBIL was 0.002 mg/dL.

What about the TC (3 h) of the same compound?
Its TC is 70.6 mg/dL.

What about the TG (3 h) of the same compound?
Its TG is 47 mg/dL.

What about the TP (3 h) of the same compound?
Its TP is 5.6 g/dL.

What about the gamma-GTP (3 h) of the same compound?
The gamma-GTP was 1 IU/L.

What about the TERMINAL_BW (6 h) of the same compound?
Its TERMINAL_BW is 209.6 g.

And the APTT (6 h, tissue Blood)?
Its APTT is 22.7 s.

What about the Bas (6 h, tissue Blood) of the same compound?
Its Bas is 0%.

What about the Eos (6 h, tissue Blood) of the same compound?
The Eos was 0.8%.

What about the Fbg (6 h, tissue Blood) of the same compound?
Its Fbg is 320.6 mg/dL.

What about the Hb (6 h, tissue Blood) of the same compound?
Its Hb is 12.9 g/dL.

What about the Ht (6 h, tissue Blood) of the same compound?
The Ht was 40.3%.

And the Lym (6 h, tissue Blood)?
Its Lym is 72.2%.

What about the MCHC (6 h, tissue Blood) of the same compound?
The MCHC was 31.9%.

What about the MCV (6 h, tissue Blood) of the same compound?
Its MCV is 63.4 fL.

And the Mono (6 h, tissue Blood)?
The Mono was 2.6%.

And the Neu (6 h, tissue Blood)?
Its Neu is 23.4%.

And the PT (6 h, tissue Blood)?
The PT was 15.5 s.

What about the Plat (6 h, tissue Blood) of the same compound?
Its Plat is 123.1 x10_4/uL.

What about the RBC (6 h, tissue Blood) of the same compound?
The RBC was 635.2 x10_4/ul.

What about the Ret (6 h, tissue Blood) of the same compound?
Its Ret is 7.7%.

What about the WBC (6 h, tissue Blood) of the same compound?
The WBC was 86 x10_2/uL.

And the KIDNEY_L (6 h)?
Its KIDNEY_L is 0.9 g.

And the KIDNEY_R (6 h)?
The KIDNEY_R was 1 g.

And the KIDNEY_TOTAL (6 h)?
The KIDNEY_TOTAL was 1.9 g.

And the LIVER (6 h)?
The LIVER was 9.2 g.

What about the ALP (6 h) of the same compound?
The ALP was 1458 IU/L.

What about the ALT (6 h) of the same compound?
Its ALT is 41.2 IU/L.

And the AST (6 h)?
The AST was 72.6 IU/L.

What about the BUN (6 h) of the same compound?
The BUN was 11.6 mg/dL.

And the CRE (6 h)?
Its CRE is 0.2 mg/dL.

And the Ca (6 h)?
Its Ca is 10.7 mg/dL.

And the Cl (6 h)?
Its Cl is 106 meq/L.

What about the DBIL (6 h) of the same compound?
Its DBIL is 0.002 mg/dL.

What about the GLC (6 h) of the same compound?
The GLC was 159.2 mg/dL.

What about the IP (6 h) of the same compound?
Its IP is 9.1 mg/dL.

What about the LDH (6 h) of the same compound?
Its LDH is 198.6 IU/L.

What about the Na (6 h) of the same compound?
Its Na is 139.4 meq/L.

What about the PL (6 h) of the same compound?
Its PL is 142 mg/dL.

What about the RALB (6 h) of the same compound?
The RALB was 3 g/dL.

What about the TBIL (6 h) of the same compound?
The TBIL was 0.002 mg/dL.

What about the TC (6 h) of the same compound?
The TC was 80.8 mg/dL.

What about the TG (6 h) of the same compound?
Its TG is 82.2 mg/dL.

What about the TP (6 h) of the same compound?
Its TP is 5.6 g/dL.

And the gamma-GTP (6 h)?
Its gamma-GTP is 1.4 IU/L.

And the TERMINAL_BW (9 h)?
Its TERMINAL_BW is 199.9 g.

And the APTT (9 h, tissue Blood)?
The APTT was 21.7 s.

And the Bas (9 h, tissue Blood)?
The Bas was 0%.

What about the Eos (9 h, tissue Blood) of the same compound?
Its Eos is 0.8%.

And the Fbg (9 h, tissue Blood)?
Its Fbg is 330 mg/dL.

And the Ht (9 h, tissue Blood)?
Its Ht is 41.9%.

And the Lym (9 h, tissue Blood)?
The Lym was 77.2%.

And the MCHC (9 h, tissue Blood)?
The MCHC was 32.4%.

What about the MCV (9 h, tissue Blood) of the same compound?
The MCV was 64.1 fL.

What about the Mono (9 h, tissue Blood) of the same compound?
Its Mono is 1.8%.

And the Neu (9 h, tissue Blood)?
The Neu was 19.8%.

And the PT (9 h, tissue Blood)?
Its PT is 15.7 s.

What about the Plat (9 h, tissue Blood) of the same compound?
Its Plat is 117.5 x10_4/uL.

What about the RBC (9 h, tissue Blood) of the same compound?
Its RBC is 653.4 x10_4/ul.

What about the Ret (9 h, tissue Blood) of the same compound?
The Ret was 7.3%.

And the WBC (9 h, tissue Blood)?
Its WBC is 61.1 x10_2/uL.

What about the KIDNEY_L (9 h) of the same compound?
The KIDNEY_L was 0.9 g.

And the KIDNEY_R (9 h)?
The KIDNEY_R was 1 g.

And the KIDNEY_TOTAL (9 h)?
Its KIDNEY_TOTAL is 1.9 g.

And the LIVER (9 h)?
The LIVER was 8.3 g.

And the ALP (9 h)?
Its ALP is 1309 IU/L.

And the ALT (9 h)?
Its ALT is 35.6 IU/L.

What about the AST (9 h) of the same compound?
Its AST is 67.6 IU/L.

And the BUN (9 h)?
Its BUN is 13.6 mg/dL.

What about the CRE (9 h) of the same compound?
The CRE was 0.2 mg/dL.

What about the Ca (9 h) of the same compound?
The Ca was 10.7 mg/dL.

What about the Cl (9 h) of the same compound?
Its Cl is 107.6 meq/L.

And the DBIL (9 h)?
The DBIL was 0 mg/dL.

What about the GLC (9 h) of the same compound?
The GLC was 149.6 mg/dL.

And the IP (9 h)?
The IP was 8.9 mg/dL.

And the LDH (9 h)?
The LDH was 166 IU/L.

And the Na (9 h)?
Its Na is 140.8 meq/L.

What about the PL (9 h) of the same compound?
The PL was 121 mg/dL.

What about the RALB (9 h) of the same compound?
The RALB was 3.1 g/dL.

And the TBIL (9 h)?
The TBIL was 0.006 mg/dL.

What about the TC (9 h) of the same compound?
Its TC is 63.2 mg/dL.

What about the TG (9 h) of the same compound?
The TG was 74 mg/dL.

What about the TP (9 h) of the same compound?
Its TP is 5.6 g/dL.

What about the gamma-GTP (9 h) of the same compound?
Its gamma-GTP is 1.2 IU/L.

What about the TERMINAL_BW (24 h) of the same compound?
The TERMINAL_BW was 220.9 g.

And the APTT (24 h, tissue Blood)?
The APTT was 21 s.

What about the Bas (24 h, tissue Blood) of the same compound?
Its Bas is 0%.

What about the Eos (24 h, tissue Blood) of the same compound?
Its Eos is 1%.

And the Fbg (24 h, tissue Blood)?
The Fbg was 319 mg/dL.

What about the Ht (24 h, tissue Blood) of the same compound?
Its Ht is 40.2%.

What about the Lym (24 h, tissue Blood) of the same compound?
The Lym was 80.8%.

What about the MCHC (24 h, tissue Blood) of the same compound?
The MCHC was 32.7%.

And the MCV (24 h, tissue Blood)?
The MCV was 64.1 fL.

And the Mono (24 h, tissue Blood)?
The Mono was 1.8%.

And the Neu (24 h, tissue Blood)?
The Neu was 15.6%.

And the PT (24 h, tissue Blood)?
The PT was 15.8 s.

What about the Plat (24 h, tissue Blood) of the same compound?
Its Plat is 119.1 x10_4/uL.

And the RBC (24 h, tissue Blood)?
The RBC was 627.6 x10_4/ul.

And the Ret (24 h, tissue Blood)?
Its Ret is 7.3%.

What about the WBC (24 h, tissue Blood) of the same compound?
The WBC was 89.5 x10_2/uL.

What about the KIDNEY_L (24 h) of the same compound?
Its KIDNEY_L is 1 g.

And the KIDNEY_R (24 h)?
The KIDNEY_R was 1 g.

What about the KIDNEY_TOTAL (24 h) of the same compound?
Its KIDNEY_TOTAL is 2 g.

And the LIVER (24 h)?
Its LIVER is 11.2 g.

What about the ALP (24 h) of the same compound?
Its ALP is 1568 IU/L.

What about the ALT (24 h) of the same compound?
The ALT was 53.6 IU/L.

What about the AST (24 h) of the same compound?
Its AST is 76.6 IU/L.

And the BUN (24 h)?
The BUN was 14.6 mg/dL.

And the CRE (24 h)?
Its CRE is 0.2 mg/dL.

And the Ca (24 h)?
The Ca was 10.9 mg/dL.

What about the Cl (24 h) of the same compound?
The Cl was 105.6 meq/L.

What about the DBIL (24 h) of the same compound?
The DBIL was 0 mg/dL.

What about the IP (24 h) of the same compound?
The IP was 8.9 mg/dL.

And the LDH (24 h)?
The LDH was 160 IU/L.

What about the Na (24 h) of the same compound?
Its Na is 143.4 meq/L.

What about the PL (24 h) of the same compound?
Its PL is 157 mg/dL.

And the RALB (24 h)?
The RALB was 3 g/dL.

What about the TBIL (24 h) of the same compound?
The TBIL was 0 mg/dL.

What about the TC (24 h) of the same compound?
The TC was 82.2 mg/dL.

And the TG (24 h)?
The TG was 118.2 mg/dL.

And the TP (24 h)?
Its TP is 5.5 g/dL.

What about the gamma-GTP (24 h) of the same compound?
The gamma-GTP was 1.6 IU/L.

— ChEMBL document CHEMBL3885861, “Open TG-GATES”
